Laboratory results reported in article PMC12880750, “Mechanistic insights and in vivo HIV suppression by the BRD4-targeting small molecule ZL0580” (PLOS Pathogens, 2026).

Experiments:
[1] = system: BRD4-knockout (KO) J-Lat cells; test: RT-qPCR of differentially expressed genes, BRD4-KO J-Lat cells; type: cell-based, human; conditions: same treatments
Method: To validate the RNA-Seq results, RT-qPCR analysis was performed on a subset of differentially expressed genes (DEGs) (Fig 3E). Eight representative DEGs were selected based on statistical significance (adjusted p values) and their involvement in key pathways identified by GSEA, including lipid metabolism/cholesterol biosynthesis (HMGCS1, SQLE, DHCR7) and cytokine signaling (ITK and DUSP8). Relative gene expression levels were normalized to the housekeeping gene GAPDH. […] As an additional control, RT-qPCR was also performed on RNA isolated from BRD4-knockout (KO) J-Lat cells that received the same treatments. The generation and characterization of BRD4-KO J-Lat cells were described previously.
RT-qPCR was performed as previously reported.

[2] = system: CDK9 binding to HIV 5′-LTR in J-Lat cells (10.6); test: ChIP-qPCR of CDK9 binding to HIV 5'-LTR; type: cell-based, human; conditions: PMA 50ng/ml, 24 hours
Method: Twenty-four hours later, cells were subjected to ChIP-qPCR using an anti-CDK9 antibody, with isotype IgG as the ChIP control.
24 hours after treatments, ChIP-qPCR was performed using a CDK9-specific antibody to examine the recruitment of CDK9 to HIV 5’-LTR in J-Lat cells. ChIP using an isotype IgG was included for normalization. Data were shown as fold change in the precipitated HIV 5′ LTR by the CDK9 antibody relative to the control isotype IgG for each treatment condition.
ChIP was performed using a method reported previously [41]. About 15 × 10⁶ J-Lat cells were treated according to the conditions described in the Main Text. After treatment, cells were collected, washed once with PBS, and resuspended in 10 mL PBS. To cross-link protein–DNA complexes, cells were fixed with 37% formaldehyde, and the reaction was quenched by adding 10Xglycine and incubating for 5 min at room temperature. The cells were then pelleted by centrifugation, and the pellets were incubated in ice-cold lysis buffer for 30 min. […] After extensive washing with the appropriate ChIP buffers, immune complexes were eluted, reverse cross-linked, and treated with proteinase K. DNA was purified using phenol–chloroform extraction and subsequently analyzed by qPCR. […] ChIP-qPCR results were quantified using the fold-enrichment method as previously reported [41].

Row | Structure (SMILES) | Contrasting regulatory effects on representative DEGs in the absence of BRD4 [1] | Increase in CDK9 occupancy at the HIV promoter relative to NC [2]
1 | Cc1sc2c(c1C)C(c1ccc(Cl)cc1)=N[C@@H](CC(=O)OC(C)(C)C)c1nnc(C)n1-2 [JQ1, reference compound] | largely abolished | 
2 | CCCCCCCCCCCCCC(=O)O[C@@H]1[C@@H](C)[C@@]2(O)[C@@H](C=C(CO)C[C@]3(O)C(=O)C(C)=C[C@@H]23)[C@@H]2C(C)(C)[C@]12OC(C)=O [PMA, reference compound] |  | ~ 19 fold
